Measurements from ChEMBL document CHEMBL3132769, “Fragment growing to retain or alter the selectivity of anchored kinase hinge-binding fragments” (Medchemcomm, 2014).

Tests used:
[1] = target: T1, Cytoplasmic tyrosine-protein kinase BMX (Homo sapiens) (UniProt P51813); test: Inhibition of human full length BMX expressed in baculovirus assessed as substrate phosphorylation using fluorescence-labelled peptides as substrate at 8 uM after 90 mins by microfluidic peptide phosphorylation assay
T1 sequence (whole entry): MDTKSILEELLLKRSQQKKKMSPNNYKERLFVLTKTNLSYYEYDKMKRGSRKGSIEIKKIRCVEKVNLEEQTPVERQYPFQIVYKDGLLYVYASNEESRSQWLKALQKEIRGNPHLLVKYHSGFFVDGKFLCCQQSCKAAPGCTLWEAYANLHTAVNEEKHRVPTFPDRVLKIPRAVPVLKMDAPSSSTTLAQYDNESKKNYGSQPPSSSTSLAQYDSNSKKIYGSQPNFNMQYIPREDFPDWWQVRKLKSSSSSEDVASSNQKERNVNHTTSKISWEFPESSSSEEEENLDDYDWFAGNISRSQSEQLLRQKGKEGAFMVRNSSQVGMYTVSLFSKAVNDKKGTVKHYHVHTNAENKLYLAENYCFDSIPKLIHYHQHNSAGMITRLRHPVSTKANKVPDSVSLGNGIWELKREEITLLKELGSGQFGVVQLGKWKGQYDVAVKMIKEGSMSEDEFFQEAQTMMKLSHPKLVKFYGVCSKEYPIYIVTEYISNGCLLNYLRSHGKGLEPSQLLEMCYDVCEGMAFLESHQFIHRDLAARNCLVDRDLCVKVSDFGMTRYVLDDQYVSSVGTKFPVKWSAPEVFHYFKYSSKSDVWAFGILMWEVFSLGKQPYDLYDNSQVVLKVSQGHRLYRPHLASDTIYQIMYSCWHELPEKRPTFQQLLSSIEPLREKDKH

[2] = target: Tyrosine-protein kinase ABL1 (Homo sapiens) (UniProt P00519); test: Inhibition of human full-length ABL expressed in baculovirus assessed as substrate phosphorylation using fluorescence-labelled peptides as substrate at 0.2 uM after 90 mins by microfluidic peptide phosphorylation assay
[3] = target: Fibroblast growth factor receptor 4 (Homo sapiens) (UniProt P22455); test: Inhibition of human FGFR4 catalytic domain expressed in baculovirus assessed as substrate phosphorylation using fluorescence-labelled peptides as substrate at 2 uM after 90 mins by microfluidic peptide phosphorylation assay
Chain of Fibroblast growth factor receptor 4 (Homo sapiens) (P22455 22-802 limits assumed): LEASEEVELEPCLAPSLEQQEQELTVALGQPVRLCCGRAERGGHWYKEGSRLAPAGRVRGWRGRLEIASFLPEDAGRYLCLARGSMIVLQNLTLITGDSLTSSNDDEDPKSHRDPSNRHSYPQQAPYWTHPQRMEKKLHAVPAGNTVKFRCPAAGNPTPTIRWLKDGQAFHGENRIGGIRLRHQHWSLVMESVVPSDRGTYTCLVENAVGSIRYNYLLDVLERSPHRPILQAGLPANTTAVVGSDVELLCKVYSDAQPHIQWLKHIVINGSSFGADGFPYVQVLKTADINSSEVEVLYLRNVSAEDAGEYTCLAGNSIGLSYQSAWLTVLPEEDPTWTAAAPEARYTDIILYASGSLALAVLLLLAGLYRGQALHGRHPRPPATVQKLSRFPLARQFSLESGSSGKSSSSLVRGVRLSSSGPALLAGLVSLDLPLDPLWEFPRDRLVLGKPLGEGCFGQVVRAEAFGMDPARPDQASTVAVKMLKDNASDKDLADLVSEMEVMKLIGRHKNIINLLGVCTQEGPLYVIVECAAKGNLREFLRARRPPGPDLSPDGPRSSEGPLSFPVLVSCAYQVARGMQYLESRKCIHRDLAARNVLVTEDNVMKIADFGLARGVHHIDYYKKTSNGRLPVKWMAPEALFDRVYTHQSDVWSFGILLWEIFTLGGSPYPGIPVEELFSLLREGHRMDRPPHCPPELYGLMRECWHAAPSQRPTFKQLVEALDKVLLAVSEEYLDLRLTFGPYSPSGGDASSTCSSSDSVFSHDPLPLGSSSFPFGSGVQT

[4] = test system: Tyrosine-protein kinase ABL1 (Homo sapiens), P00519 [H396P]; test: Inhibition of human truncated ABL H396P mutant expressed in baculovirus assessed as substrate phosphorylation using fluorescence-labelled peptides as substrate at 95 uM after 90 mins by microfluidic peptide phosphorylation assay
[5] = target: Glycogen synthase kinase-3 beta (Homo sapiens) (UniProt P49841); test: Inhibition of human full length GSK-3 beta expressed in baculovirus assessed as substrate phosphorylation using fluorescence-labelled peptides as substrate at 1000 uM after 90 mins by microfluidic peptide phosphorylation assay
Chain of Glycogen synthase kinase-3 beta (Homo sapiens) (P49841 whole entry, looked up, the tested form may be a part): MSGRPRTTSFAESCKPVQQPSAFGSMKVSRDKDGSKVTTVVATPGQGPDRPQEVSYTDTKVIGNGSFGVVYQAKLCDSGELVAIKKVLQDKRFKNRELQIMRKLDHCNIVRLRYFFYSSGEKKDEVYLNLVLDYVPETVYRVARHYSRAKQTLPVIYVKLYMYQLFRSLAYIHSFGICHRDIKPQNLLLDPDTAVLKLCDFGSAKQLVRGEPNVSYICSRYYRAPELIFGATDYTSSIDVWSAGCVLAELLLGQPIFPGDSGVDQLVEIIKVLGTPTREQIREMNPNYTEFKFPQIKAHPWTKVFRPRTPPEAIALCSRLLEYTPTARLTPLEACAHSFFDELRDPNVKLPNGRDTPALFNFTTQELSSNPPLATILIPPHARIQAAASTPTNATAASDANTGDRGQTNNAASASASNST

[6] = target: T2, Interleukin-1 receptor-associated kinase 4 (Homo sapiens) (UniProt Q9NWZ3); test: Inhibition of human IRAK4 catalytic domain expressed in baculovirus assessed as substrate phosphorylation using fluorescence-labelled peptides as substrate at 1000 uM after 90 mins by microfluidic peptide phosphorylation assay
T2 sequence (whole entry): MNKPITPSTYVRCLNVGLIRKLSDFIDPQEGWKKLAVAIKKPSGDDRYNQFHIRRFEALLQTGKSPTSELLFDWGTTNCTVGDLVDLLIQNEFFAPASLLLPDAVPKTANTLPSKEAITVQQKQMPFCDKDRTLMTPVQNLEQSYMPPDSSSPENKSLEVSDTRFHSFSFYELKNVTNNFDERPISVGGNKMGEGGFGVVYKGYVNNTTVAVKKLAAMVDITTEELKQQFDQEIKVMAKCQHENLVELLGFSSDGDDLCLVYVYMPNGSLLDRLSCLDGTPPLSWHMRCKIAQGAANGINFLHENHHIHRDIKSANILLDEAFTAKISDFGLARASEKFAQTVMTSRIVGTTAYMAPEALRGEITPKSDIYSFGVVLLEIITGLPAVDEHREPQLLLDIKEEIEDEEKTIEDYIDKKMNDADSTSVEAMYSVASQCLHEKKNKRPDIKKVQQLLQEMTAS

[7] = target: Protein kinase C beta type (Homo sapiens) (UniProt P05771); test: Inhibition of human truncated PKC beta1 expressed in baculovirus assessed as substrate phosphorylation using fluorescence-labelled peptides as substrate at 70 uM after 90 mins by microfluidic peptide phosphorylation assay
Chain of Protein kinase C beta type (Homo sapiens) (P05771 2-671 limits assumed): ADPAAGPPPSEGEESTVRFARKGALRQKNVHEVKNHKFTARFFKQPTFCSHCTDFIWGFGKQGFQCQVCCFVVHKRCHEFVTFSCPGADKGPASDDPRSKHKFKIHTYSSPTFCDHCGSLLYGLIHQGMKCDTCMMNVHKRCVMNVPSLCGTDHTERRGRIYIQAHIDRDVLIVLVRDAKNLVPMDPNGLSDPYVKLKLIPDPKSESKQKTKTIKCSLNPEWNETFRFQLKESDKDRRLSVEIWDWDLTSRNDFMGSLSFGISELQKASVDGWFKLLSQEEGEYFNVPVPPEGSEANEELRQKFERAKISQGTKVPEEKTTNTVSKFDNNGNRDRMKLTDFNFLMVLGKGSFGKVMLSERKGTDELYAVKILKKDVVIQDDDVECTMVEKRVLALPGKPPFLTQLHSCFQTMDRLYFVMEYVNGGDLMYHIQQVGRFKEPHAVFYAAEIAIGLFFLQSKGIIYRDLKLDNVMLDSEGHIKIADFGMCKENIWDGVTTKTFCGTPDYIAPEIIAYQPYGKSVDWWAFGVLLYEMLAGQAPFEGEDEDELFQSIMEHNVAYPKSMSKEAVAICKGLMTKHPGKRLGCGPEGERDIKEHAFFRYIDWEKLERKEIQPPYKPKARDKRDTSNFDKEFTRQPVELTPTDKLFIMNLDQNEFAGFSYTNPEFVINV

[8] = target: T3, Aurora kinase C (Homo sapiens) (UniProt Q9UQB9); test: Inhibition of human full length AurC expressed in baculovirus assessed as substrate phosphorylation using fluorescence-labelled peptides as substrate at 70 uM after 90 mins by microfluidic peptide phosphorylation assay
T3 sequence (whole entry): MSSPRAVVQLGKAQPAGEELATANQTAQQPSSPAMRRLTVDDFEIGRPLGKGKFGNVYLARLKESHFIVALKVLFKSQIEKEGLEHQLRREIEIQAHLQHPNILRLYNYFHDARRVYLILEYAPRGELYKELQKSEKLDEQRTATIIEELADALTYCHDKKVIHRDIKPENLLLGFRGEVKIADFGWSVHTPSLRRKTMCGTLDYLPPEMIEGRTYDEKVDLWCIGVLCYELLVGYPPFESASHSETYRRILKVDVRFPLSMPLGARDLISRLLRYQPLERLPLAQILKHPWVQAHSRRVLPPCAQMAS

[9] = target: T4, Mitogen-activated protein kinase 13 (Homo sapiens) (UniProt O15264); test: Inhibition of human full length p38 delta expressed in Escherichia coli cell assessed as substrate phosphorylation using fluorescence-labelled peptides as substrate at 70 uM after 90 mins by microfluidic peptide phosphorylation assay
T4 sequence (whole entry): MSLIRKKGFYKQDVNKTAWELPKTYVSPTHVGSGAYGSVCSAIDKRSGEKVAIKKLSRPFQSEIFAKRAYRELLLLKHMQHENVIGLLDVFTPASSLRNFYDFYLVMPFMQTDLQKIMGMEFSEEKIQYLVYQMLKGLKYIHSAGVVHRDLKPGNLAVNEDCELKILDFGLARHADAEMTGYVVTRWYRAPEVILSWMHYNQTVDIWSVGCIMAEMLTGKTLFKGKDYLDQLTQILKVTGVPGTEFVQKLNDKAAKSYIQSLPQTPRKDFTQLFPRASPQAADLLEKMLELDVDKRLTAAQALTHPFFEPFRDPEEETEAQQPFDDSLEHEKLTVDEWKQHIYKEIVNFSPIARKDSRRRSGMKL

In the case of `NCC1CCN(c2ncnc3[nH]ccc23)CC1`, the inhibition [1] is reported as 42.5%.

`Clc1ccc(C2(c3ccc(-c4ncnc5[nH]cnc45)cc3)CCNCC2)cc1` was tested, and the inhibition [2] was 0%.

Work on `NC1CCN(c2ncnc3[nH]ccc23)CC1` yielded an inhibition [3] of 0%.

`NCCc1ccc(-c2ncnc3[nH]cnc23)cc1` was tested, and the inhibition [4] was 69.5%.

Molecule `c1cnc2[nH]ccc2c1` has an inhibition [5] of 32% and an inhibition [6] of 65%.

Work on `CNCc1ccc(-c2ncnc3[nH]cnc23)cc1` yielded an inhibition [7] of 73.5%, an inhibition [8] of 73% and an inhibition [9] of 5%.
